# Measured values published in PMC8550792, “Evolution of kinase polypharmacology across HSP90 drug discovery” (Cell Chemical Biology, 2021).
# Legend:
# Experiment in all cases: biochemical
# Assay type in all cases: biochemical
# [1] = target: T1, 382 unique human kinases (Homo sapiens, UniProt P22607, K650E); conditions: FGFR3 (K650E), 10 uM; for remaining activity at 10 µM: read-out: % Enzyme Activity (relative to DMSO controls)
# T1 construct: purchased Reaction Biology (HotSpot contract assay)
# T1 sequence (P22607 23-806 K650E): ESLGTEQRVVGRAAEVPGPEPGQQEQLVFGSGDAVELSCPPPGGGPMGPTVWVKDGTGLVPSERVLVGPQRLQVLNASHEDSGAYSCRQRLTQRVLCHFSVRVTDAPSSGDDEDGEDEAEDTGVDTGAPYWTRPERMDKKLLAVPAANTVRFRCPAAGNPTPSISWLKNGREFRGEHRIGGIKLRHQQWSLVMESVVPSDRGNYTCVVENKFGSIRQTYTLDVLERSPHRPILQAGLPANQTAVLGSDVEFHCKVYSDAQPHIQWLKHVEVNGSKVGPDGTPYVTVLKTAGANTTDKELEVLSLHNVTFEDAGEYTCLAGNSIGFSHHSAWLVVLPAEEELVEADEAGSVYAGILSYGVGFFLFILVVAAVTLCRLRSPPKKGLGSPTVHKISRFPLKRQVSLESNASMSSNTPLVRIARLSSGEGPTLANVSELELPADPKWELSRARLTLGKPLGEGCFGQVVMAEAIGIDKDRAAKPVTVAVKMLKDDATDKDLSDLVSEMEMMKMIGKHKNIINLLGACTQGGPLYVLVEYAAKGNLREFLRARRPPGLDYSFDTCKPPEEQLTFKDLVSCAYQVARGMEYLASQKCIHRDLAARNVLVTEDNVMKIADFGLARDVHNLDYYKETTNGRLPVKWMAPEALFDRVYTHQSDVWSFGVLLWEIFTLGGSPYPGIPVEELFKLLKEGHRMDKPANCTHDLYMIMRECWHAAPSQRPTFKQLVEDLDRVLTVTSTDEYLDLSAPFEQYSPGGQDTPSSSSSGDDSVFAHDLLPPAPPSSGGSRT
# [2] = target: T2, 382 unique human kinases (Homo sapiens, UniProt Q9UPZ9); conditions: kinase LCK2/ICK, compound 10 uM; for remaining activity at 10 µM: read-out: % Enzyme Activity (relative to DMSO controls)
# T2 construct: purchased Reaction Biology (HotSpot contract assay)
# T2 sequence (Q9UPZ9 1-632): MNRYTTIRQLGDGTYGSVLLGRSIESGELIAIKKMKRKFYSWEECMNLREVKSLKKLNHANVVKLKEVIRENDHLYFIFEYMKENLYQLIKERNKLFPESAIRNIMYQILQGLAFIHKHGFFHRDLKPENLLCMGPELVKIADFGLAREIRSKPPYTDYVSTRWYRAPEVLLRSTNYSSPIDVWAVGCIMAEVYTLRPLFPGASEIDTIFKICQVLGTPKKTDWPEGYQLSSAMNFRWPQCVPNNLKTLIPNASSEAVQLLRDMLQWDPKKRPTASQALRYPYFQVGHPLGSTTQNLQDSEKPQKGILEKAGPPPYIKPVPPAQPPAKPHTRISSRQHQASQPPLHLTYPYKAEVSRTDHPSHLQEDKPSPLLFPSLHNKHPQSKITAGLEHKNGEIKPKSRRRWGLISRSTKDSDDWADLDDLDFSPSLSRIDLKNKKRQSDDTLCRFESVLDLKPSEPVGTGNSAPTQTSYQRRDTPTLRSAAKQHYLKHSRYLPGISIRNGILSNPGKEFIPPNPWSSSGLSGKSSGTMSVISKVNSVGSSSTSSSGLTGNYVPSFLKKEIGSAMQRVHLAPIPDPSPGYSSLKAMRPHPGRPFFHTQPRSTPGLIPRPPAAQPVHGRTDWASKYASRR
# [3] = target: T3, 382 unique human kinases (Homo sapiens, UniProt O14965); conditions: Aurora A, [ATP] 2.5 µM, compound 10 uM; for remaining activity at 10 µM: read-out: % Enzyme Activity (relative to DMSO controls)
# T3 construct: purchased Reaction Biology (HotSpot contract assay)
# T3 sequence (O14965 1-403): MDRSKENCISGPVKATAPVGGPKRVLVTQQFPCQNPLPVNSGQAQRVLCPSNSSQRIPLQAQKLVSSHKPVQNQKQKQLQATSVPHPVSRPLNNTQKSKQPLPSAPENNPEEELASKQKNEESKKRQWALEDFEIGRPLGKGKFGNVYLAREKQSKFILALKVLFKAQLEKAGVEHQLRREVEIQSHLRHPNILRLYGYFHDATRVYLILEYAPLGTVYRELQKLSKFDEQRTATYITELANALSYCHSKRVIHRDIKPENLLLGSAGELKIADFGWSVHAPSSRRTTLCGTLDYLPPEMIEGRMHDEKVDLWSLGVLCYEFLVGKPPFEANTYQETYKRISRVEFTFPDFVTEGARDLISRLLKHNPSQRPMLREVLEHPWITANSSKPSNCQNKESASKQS
# [4] = target: T4, 382 unique human kinases (Homo sapiens, UniProt P07332); conditions: FES/FPS, 10 uM; for remaining activity at 10 µM: read-out: % Enzyme Activity (relative to DMSO controls)
# T4 construct: purchased Reaction Biology (HotSpot contract assay)
# T4 sequence (P07332 whole entry): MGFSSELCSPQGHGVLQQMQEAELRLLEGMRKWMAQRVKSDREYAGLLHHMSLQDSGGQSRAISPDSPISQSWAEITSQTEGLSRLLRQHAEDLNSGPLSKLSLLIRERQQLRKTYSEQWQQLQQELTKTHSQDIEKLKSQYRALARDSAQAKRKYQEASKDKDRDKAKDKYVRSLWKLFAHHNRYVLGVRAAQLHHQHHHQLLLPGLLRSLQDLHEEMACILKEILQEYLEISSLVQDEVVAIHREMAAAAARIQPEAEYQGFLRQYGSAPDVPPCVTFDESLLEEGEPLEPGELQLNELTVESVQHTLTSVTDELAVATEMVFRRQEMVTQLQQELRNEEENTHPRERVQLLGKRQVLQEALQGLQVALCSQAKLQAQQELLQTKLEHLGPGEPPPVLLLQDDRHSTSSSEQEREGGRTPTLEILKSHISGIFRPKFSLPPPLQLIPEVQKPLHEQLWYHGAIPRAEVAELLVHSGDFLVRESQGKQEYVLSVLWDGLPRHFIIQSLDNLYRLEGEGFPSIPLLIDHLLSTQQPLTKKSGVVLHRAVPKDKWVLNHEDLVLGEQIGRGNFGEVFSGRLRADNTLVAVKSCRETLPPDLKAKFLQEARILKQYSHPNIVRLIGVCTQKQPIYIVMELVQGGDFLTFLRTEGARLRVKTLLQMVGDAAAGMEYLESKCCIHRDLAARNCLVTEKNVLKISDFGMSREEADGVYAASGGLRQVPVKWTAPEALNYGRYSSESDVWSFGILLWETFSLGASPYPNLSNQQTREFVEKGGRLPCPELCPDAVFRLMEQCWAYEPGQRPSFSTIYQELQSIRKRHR
# [5] = target: T5, 382 unique human kinases (Homo sapiens, UniProt Q16620); conditions: TRKB, [ATP] 50 µM, compound 10 uM; for remaining activity at 10 µM: read-out: % Enzyme Activity (relative to DMSO controls)
# T5 construct: purchased Reaction Biology (HotSpot contract assay)
# T5 sequence (Q16620 32-822): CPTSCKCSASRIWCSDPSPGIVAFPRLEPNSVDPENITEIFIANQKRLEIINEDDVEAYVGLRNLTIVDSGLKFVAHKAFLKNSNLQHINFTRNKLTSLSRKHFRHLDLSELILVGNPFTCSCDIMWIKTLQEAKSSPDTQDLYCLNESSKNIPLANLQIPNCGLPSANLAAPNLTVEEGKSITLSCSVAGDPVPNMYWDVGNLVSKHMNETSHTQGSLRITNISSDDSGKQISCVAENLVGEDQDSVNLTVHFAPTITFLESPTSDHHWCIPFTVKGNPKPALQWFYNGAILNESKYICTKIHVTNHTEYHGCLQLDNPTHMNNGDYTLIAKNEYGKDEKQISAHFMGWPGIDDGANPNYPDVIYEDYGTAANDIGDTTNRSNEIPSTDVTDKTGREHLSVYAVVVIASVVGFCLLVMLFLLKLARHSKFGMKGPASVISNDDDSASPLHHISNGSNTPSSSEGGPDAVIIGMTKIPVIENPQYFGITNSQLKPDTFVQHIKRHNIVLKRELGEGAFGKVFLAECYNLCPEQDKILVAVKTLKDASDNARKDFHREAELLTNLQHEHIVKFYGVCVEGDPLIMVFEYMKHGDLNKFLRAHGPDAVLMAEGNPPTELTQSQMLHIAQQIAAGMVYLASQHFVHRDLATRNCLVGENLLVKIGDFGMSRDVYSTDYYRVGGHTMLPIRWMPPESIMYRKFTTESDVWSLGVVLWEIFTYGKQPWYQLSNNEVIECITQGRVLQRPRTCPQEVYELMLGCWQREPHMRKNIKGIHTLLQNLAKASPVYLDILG
# [6] = target: T6, 382 unique human kinases (Homo sapiens, UniProt Q6VAB6, R676S); conditions: KSR2 (R676S), 10 uM; for remaining activity at 10 µM: read-out: % Enzyme Activity (relative to DMSO controls)
# T6 construct: purchased Reaction Biology (HotSpot contract assay)
# T6 sequence (Q6VAB6 1-950 R676S): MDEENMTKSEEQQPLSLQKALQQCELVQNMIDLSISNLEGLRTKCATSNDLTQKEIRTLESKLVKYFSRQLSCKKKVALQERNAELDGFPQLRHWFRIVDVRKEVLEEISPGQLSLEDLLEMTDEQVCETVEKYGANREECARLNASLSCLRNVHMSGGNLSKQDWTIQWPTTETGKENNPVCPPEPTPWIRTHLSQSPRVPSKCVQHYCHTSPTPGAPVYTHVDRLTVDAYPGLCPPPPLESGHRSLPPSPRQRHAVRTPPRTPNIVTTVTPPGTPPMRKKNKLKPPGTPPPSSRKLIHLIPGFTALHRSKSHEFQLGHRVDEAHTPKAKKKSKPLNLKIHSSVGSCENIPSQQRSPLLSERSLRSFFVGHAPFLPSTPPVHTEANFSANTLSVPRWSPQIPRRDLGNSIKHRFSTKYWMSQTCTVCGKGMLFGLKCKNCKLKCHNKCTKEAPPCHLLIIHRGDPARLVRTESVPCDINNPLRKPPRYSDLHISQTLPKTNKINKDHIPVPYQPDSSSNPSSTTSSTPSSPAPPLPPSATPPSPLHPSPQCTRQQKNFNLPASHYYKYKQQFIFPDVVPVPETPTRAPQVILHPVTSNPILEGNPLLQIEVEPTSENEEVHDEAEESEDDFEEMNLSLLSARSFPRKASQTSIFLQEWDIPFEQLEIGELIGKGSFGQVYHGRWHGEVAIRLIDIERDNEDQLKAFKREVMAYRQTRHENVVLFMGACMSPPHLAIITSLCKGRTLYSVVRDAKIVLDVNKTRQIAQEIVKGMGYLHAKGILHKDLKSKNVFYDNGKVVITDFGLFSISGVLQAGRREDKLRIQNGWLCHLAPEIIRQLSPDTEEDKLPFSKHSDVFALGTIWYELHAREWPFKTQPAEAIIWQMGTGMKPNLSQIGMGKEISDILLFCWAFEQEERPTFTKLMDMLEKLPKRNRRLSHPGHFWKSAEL
# [7] = target: T7, 382 unique human kinases (Homo sapiens, UniProt Q9NQU5); conditions: PAK6, 10 uM; for remaining activity at 10 µM: read-out: % Enzyme Activity (relative to DMSO controls)
# T7 construct: purchased Reaction Biology (HotSpot contract assay)
# T7 sequence (Q9NQU5 whole entry): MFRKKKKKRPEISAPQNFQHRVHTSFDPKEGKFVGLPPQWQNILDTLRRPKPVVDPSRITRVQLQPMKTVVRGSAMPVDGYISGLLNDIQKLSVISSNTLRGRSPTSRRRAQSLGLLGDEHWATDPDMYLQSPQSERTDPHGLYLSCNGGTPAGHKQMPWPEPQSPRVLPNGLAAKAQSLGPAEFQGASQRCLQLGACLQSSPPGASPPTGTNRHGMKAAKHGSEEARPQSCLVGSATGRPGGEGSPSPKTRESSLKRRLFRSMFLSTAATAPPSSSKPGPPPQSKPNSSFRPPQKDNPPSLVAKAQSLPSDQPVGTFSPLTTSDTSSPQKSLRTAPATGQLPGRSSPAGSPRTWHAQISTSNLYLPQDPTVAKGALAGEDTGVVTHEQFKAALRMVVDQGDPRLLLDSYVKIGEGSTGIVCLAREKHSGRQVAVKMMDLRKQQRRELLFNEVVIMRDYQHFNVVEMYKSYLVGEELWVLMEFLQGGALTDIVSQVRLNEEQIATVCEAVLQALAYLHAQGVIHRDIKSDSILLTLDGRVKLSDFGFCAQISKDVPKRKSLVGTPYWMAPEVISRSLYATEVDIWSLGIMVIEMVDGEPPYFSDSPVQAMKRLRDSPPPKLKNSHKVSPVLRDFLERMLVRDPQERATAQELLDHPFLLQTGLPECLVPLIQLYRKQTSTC
Structure (SMILES),remaining activity at 10 µM [1] [%],remaining activity at 10 µM [2] [%],remaining activity at 10 µM [3] [%],remaining activity at 10 µM [4] [%],remaining activity at 10 µM [5] [%],remaining activity at 10 µM [6] [%],remaining activity at 10 µM [7] [%],% Enzyme Activity (relative to DMSO controls) [1] [%],% Enzyme Activity (relative to DMSO controls) [2] [%],% Enzyme Activity (relative to DMSO controls) [3] [%],% Enzyme Activity (relative to DMSO controls) [4] [%],% Enzyme Activity (relative to DMSO controls) [5] [%],% Enzyme Activity (relative to DMSO controls) [6] [%],% Enzyme Activity (relative to DMSO controls) [7] [%]
CC(C)c1cc(-c2n[nH]c(=O)n2-c2ccc3c(ccn3C)c2)c(O)cc1O [Ganetespib (STA9090)],66.5,90.4,–,–,–,–,–,–,–,–,–,–,–,–
CC(C)c1cc(-c2n[nH]c(=O)n2-c2ccc3c(ccn3C)c2)c(O)cc1O [Ganetespib],–,–,35,98.6,21.5,93,106,–,–,–,–,–,–,–
CCNC(=O)c1noc(-c2cc(C(C)C)c(O)cc2O)c1-c1ccc(CN2CCOCC2)cc1 [Luminespib (AUY-922)],101,113,–,–,–,–,–,98.78,109.49,–,–,–,–,–
CCNC(=O)c1noc(-c2cc(C(C)C)c(O)cc2O)c1-c1ccc(CN2CCOCC2)cc1 [Luminespib],–,–,90.7,99.4,98.1,96.8,97.2,–,–,89.97,99.33,97.46,96.29,95.70
